Patent publication US10703727B2, “Method for preparing substituted 3-(2-anilino-1-cyclohexyl-1H-benzimidazol-5-yl)propanoic acid derivatives” (Bayer Pharma Aktiengesellschaft, priority 2015, dated 2020)

Experiments:
IDH1 R132H [1] = biological target: T1, IDH1 R132H (Homo sapiens, UniProt O75874, R132H); assay: Cellular assay: 2-HG in medium of LN229 R132H cells overexpressing mutated IDH; type: cell-based; details: 24 hours
Method: Concentrations of (2R)-2-hydroxyglutarate (2HG) were determined in a medium of a cell line having an overexpession of the mutated isocitrate dehydrogenase protein. mIDH catalyses the NADPH-dependent reduction of alpha-ketoglutarate to 2-HG. […] The cells were obtained using trypsin and placed in 96-well titre plates. The cells were incubated overnight at 37° C. in 5% CO2. On the next day, test compounds were added to the cells. The final concentration of DMSO was 0.1% and DMSO controls were used. The titre plates were then placed in an incubator for 24 hours.
2-HG was measured using the method published by Balss et al. (Acta Neuropathol (2012) 124: 883-891). HClO4 was added to each well and the titre plates were centrifuged. Aliquots were removed and incubated with hydroxyglutarate dehydrogenase (HGDH), diaphorase, NAD+ and resazurin. The conversion of resazurin to resorufin was determined by fluorescence spectroscopy at Ex 540 nm Em 600 nm. The increase in the fluorescence signal is proportional to formation of 2-HG. IC50 values were determined by interpolation from plots of the relative fluorescence against the inhibitor concentration.

IDH1 R132H [2] = biological target: T1, IDH1 R132H; assay: Inhibition of IDH1 R132H in a biochemical assay (NADPH consumption, luminescence); details: 1.5 nM enzyme, 1 μM NADPH, 250 μM α-KG, 32° C., 30 minutes
Method: NADPH consumption is determined by luminescence.
Test compounds were assayed in a concentration range of 0.002 to 10 μM. The final DMSO concentration was 2.4%.
The luminescence was determined using a luminescence reader (10 seconds measurement time, 1 second integration period, 30% sensitivity). The drop in luminescence is proportional to the activity of mIDH1. IC50 values were determined by interpolation from plots of the relative luminescence against the inhibitor concentration.

T1 sequence (O75874 whole entry R132H): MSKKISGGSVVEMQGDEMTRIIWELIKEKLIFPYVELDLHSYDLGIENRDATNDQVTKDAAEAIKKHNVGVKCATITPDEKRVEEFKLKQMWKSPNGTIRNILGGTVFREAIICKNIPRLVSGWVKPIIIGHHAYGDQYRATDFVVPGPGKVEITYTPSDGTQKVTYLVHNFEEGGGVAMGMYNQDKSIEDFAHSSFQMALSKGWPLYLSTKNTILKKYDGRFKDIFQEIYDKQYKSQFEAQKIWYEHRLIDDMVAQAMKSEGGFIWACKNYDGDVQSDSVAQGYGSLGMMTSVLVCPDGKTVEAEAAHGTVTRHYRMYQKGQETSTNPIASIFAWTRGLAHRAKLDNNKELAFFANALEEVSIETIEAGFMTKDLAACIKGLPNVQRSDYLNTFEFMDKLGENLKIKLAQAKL

| IC50 (IDH1 R132H [1]) | IC50 (IDH1 R132H [2]) | SMILES |
| --- | --- | --- |
| 400 nM | 50 nM | CC(C)c1ccc(Nc2nc3cc(CCC(=O)O)ccc3n2C2CCCC(C)(C)C2)cc1 (racemic) [(±) 3-(1-[3,3-Dimethylcyclohexyl]-2-{[4-(propan-2-yl)phenyl]amino}-1H-benzimidazol-5-yl)propanoic acid] |
| 850 nM | 60 nM | CC1(C)CCCC(n2c(Nc3ccc(OC(F)(F)F)cc3)nc3cc(CCC(=O)O)ccc32)C1 (racemic) [(±) 3-(1-[3,3-dimethylcyclohexyl]-2-{[4-(trifluoromethoxy)phenyl]amino}-1H-benzimidazol-5-yl)propanoic acid] |
| 400 nM | 60 nM | CC(C)Oc1ccc(Nc2nc3cc(CCC(=O)O)ccc3n2[C@H]2C[C@@H](C)CC(C)(C)C2)cc1 (racemic) [(±) 3-(2-{[4-(Propan-2-yloxy)phenyl]amino}-1-[(cis)-3,3,5-trimethylcyclohexyl]-1H-benzimidazol-5-yl)propanoic acid] |
| 70 nM | 40 nM | C[C@@H]1C[C@H](n2c(Nc3ccc(C(F)(F)F)cc3)nc3cc(CCC(=O)O)ccc32)CC(C)(C)C1 (racemic) [(±) 3-(2-{[4-(Trifluoromethyl)phenyl]amino}-1-[(cis)-3,3,5-trimethylcyclohexyl]-1H-benzimidazol-5-yl)propanoic acid] |
| 300 nM | 300 nM | COC(=O)CCc1ccc2c(c1)nc(Nc1ccc(OC(F)(F)F)cc1)n2[C@H]1C[C@@H](C)CC(C)(C)C1 (racemic) [(±) Methyl 3-(2-{[4-(trifluoromethoxy)phenyl]amino}-1-[(cis)-3,3,5-trimethylcyclohexyl]-1H-benzimidazol-5-yl)propanoate] |
| 850 nM | 300 nM | CC(C)Oc1ccc(Nc2nc3cc(CCC(=O)O)ccc3n2C2CCCC(C)(C)C2)cc1 (racemic) [(±) 3-(1-[3,3-Dimethylcyclohexyl]-2-{[4-(propan-2-yloxy)phenyl]amino}-1H-benzimidazol-5-yl)propanoic acid] |
| 90 nM | 170 nM | COC(=O)CCc1ccc2c(c1)nc(Nc1ccc(C(C)C)cc1)n2[C@H]1C[C@@H](C)CC(C)(C)C1 (racemic) [(±) Methyl 3-(2-{[4-(propan-2-yl)phenyl]amino}-1-[(cis)-3,3,5-trimethylcyclohexyl]-1H-benzimidazol-5-yl)propanoate] |
| 80 nM | 20 nM | CC(C)c1ccc(Nc2nc3cc(CCC(=O)O)ccc3n2[C@H]2C[C@@H](C)CC(C)(C)C2)cc1 (racemic) [(±) 3-(2-{[4-(Propan-2-yl)phenyl]amino}-1-[(cis)-3,3,5-trimethylcyclohexyl]-1H-benzimidazol-5-yl)propanoic acid] |
